Columns and labels:
Assay in all cases: Kinase profiling
Type in all cases: biochemical
Settings in all cases: 0.1 or 1 μM inhibitor; mean of triplicate
WNK1 = WNK1 (Homo sapiens, UniProt Q9H4A3)
Method in brief: (§1)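 Each kinase of a 140-member panel was assayed in vitro in the presence of 0.1 or 1 μM inhibitor, and activity was expressed as a percentage of DMSO control reactions. Triplicate reactions were averaged, reported ±S.D.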

p38γ MAPK = p38γ MAPK (Homo sapiens, UniProt P53778)
HER4 = HER4 (Homo sapiens, UniProt Q15303)
Sequence of HER4 (Q15303 26-1308): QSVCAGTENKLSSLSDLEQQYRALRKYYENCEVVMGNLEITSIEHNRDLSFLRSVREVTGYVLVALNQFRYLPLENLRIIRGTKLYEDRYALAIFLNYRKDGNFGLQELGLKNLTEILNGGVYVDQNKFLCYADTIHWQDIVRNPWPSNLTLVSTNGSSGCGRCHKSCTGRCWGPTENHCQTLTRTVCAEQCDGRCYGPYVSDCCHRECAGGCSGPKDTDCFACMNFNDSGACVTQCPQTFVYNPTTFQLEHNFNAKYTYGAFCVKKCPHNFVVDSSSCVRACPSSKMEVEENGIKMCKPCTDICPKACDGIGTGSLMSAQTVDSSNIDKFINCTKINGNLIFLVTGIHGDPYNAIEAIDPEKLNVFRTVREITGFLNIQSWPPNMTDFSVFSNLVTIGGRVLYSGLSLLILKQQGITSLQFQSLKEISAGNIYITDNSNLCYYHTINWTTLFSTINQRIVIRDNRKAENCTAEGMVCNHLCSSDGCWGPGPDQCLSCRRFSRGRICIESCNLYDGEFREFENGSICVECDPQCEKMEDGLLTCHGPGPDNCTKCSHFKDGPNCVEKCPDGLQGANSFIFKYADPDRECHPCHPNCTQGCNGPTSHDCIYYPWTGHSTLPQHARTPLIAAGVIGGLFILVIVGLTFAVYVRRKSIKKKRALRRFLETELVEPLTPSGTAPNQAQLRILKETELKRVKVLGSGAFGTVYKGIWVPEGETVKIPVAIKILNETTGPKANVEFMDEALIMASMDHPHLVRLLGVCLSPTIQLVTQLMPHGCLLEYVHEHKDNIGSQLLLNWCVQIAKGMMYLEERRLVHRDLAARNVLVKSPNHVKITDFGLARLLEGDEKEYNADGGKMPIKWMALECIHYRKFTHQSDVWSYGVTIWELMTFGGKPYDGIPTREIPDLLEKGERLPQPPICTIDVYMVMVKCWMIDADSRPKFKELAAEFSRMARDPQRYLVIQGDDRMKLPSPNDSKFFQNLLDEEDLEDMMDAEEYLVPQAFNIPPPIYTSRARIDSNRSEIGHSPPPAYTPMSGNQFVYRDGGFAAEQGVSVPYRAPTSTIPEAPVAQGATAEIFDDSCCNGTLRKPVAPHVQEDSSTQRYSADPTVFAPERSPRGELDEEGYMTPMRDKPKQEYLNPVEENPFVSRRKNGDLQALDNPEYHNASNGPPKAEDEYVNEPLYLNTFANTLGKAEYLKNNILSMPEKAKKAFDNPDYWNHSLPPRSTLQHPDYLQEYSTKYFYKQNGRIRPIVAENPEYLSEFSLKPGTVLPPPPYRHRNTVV
Method in brief: as §1

PIM3 = PIM3 (Homo sapiens, UniProt Q86V86)
Method in brief: as §1

MNK2 = MNK2 (Homo sapiens, UniProt Q9HBH9)
Sequence of MNK2 (Q9HBH9 whole entry): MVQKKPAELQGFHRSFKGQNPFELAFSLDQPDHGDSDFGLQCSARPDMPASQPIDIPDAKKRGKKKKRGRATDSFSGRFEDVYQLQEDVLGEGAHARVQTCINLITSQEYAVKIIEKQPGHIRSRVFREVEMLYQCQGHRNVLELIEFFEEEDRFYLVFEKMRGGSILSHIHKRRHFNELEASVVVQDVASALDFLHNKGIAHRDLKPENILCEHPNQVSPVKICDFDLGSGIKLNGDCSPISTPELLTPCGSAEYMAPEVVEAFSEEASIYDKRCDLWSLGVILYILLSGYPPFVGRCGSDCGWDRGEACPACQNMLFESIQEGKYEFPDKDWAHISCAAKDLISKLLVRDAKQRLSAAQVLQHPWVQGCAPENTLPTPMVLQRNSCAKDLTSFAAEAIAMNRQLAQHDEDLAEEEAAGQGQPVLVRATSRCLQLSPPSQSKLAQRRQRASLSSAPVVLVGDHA
Method in brief: as §1

ZAP70 = ZAP70 (Homo sapiens, UniProt P43403)
Sequence of ZAP70 (P43403 whole entry): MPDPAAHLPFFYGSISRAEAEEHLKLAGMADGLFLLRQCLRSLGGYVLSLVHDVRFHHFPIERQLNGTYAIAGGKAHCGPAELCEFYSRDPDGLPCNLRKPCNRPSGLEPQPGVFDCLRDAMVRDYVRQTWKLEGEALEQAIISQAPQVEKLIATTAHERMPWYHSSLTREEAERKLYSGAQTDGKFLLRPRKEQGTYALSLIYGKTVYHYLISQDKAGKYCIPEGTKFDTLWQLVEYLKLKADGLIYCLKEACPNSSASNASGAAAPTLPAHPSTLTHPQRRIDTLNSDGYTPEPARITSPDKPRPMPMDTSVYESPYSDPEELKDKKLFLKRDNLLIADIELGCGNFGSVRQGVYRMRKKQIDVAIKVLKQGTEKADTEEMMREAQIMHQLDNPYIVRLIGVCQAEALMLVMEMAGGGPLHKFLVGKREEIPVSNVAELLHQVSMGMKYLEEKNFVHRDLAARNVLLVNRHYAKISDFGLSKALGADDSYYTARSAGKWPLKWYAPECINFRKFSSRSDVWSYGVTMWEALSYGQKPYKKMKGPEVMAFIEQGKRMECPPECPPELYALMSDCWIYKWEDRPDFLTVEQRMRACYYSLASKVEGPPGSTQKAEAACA
Method in brief: as §1

IR = IR (Homo sapiens, UniProt P06213)
Method in brief: as §1

DAPK1 = DAPK1 (Homo sapiens, UniProt P53355)
Method in brief: as §1

Sequence of WNK1 (Q9H4A3 whole entry): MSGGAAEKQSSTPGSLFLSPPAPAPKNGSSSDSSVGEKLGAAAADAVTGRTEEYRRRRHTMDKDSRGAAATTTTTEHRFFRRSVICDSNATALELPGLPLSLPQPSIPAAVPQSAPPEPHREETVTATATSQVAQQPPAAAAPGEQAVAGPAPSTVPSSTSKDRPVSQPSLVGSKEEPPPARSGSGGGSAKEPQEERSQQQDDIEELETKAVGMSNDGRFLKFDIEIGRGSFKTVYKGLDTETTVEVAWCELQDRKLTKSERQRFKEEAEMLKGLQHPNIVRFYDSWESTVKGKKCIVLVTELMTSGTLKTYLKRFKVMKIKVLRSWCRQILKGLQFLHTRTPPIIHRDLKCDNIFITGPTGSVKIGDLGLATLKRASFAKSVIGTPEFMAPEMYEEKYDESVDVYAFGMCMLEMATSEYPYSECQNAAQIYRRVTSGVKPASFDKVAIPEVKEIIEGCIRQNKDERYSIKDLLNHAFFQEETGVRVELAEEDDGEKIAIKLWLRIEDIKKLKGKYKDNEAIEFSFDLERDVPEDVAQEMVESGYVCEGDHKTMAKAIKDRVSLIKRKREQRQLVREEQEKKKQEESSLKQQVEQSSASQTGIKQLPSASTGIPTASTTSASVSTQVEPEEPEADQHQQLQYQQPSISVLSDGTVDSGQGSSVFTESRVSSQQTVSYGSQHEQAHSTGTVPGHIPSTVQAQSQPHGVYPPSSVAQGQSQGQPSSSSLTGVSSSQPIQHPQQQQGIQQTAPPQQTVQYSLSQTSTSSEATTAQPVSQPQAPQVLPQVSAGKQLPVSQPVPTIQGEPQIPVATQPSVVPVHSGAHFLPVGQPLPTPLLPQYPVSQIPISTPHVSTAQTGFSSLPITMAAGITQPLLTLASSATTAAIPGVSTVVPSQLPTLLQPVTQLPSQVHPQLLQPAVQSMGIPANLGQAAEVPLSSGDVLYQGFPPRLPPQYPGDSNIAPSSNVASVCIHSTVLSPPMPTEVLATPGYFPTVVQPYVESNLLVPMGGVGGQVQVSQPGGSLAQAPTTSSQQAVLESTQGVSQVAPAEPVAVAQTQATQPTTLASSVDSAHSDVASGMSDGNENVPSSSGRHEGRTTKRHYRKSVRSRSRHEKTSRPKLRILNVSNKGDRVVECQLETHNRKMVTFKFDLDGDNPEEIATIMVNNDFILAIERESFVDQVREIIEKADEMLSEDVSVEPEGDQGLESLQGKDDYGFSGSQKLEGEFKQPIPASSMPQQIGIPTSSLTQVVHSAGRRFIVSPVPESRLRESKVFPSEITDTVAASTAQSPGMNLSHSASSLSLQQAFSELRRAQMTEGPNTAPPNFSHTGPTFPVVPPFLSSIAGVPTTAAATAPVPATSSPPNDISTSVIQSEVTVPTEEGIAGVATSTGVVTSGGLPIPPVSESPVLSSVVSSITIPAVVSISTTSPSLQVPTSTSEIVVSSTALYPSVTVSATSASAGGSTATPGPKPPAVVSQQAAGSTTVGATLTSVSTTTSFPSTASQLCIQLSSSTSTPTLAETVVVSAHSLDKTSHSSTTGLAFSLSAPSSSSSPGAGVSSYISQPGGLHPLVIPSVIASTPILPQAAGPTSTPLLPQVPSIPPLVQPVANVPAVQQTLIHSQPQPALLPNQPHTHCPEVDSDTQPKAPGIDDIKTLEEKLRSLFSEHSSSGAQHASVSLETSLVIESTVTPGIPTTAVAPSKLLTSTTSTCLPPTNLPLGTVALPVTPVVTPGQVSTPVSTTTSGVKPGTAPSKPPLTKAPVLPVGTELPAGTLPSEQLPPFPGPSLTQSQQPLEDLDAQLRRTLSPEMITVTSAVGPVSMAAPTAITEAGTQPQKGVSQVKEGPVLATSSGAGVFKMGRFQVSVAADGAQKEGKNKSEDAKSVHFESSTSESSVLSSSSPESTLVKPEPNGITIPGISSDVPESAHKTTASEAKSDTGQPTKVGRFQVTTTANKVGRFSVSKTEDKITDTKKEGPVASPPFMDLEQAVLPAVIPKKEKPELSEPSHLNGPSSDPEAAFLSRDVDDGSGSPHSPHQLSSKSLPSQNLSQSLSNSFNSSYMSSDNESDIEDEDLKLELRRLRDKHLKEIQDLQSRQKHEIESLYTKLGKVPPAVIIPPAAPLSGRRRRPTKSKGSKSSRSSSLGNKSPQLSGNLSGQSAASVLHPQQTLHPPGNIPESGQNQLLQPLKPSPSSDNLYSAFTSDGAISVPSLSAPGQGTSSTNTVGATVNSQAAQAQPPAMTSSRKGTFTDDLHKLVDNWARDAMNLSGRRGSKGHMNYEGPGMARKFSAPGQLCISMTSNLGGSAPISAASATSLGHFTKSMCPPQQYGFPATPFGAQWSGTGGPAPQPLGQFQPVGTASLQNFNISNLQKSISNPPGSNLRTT

With Cc1nc(Nc2cnn(C3CCNCC3)c2)nc2c1N(C)C(=O)c1cc3ccccc3cc1N2C [HTH-01-015] as the compound, how does the “WNK1 activity, percentage of DMSO control” value (WNK1) read?
The value was 99 percentage.

What about the “p38γ MAPK activity, percentage of DMSO control” value (p38γ MAPK) of the same compound?
Its value is 100 percentage.

What about the “HER4 activity, percentage of DMSO control” value (HER4) of the same compound?
The value was 102 percentage.

And the “PIM3 activity, percentage of DMSO control” value (PIM3)?
The value was 97 percentage.

And the “MNK2 activity, percentage of DMSO control” value (MNK2)?
The value was 106 percentage.

And the “ZAP70 activity, percentage of DMSO control” value (ZAP70)?
Its value is 103 percentage.

And the “IR activity, percentage of DMSO control” value (IR)?
Its value is 105 percentage.

And the “DAPK1 activity, percentage of DMSO control” value (DAPK1)?
Its value is 100 percentage.

From paper PMC3969223, “Characterization of WZ4003 and HTH-01-015 as selective inhibitors of the LKB1-tumour-suppressor-activated NUAK kinases” (Biochemical Journal, 2013)
